Measured values from ChEMBL document CHEMBL1145740, “Novel alpha-amino-acid phenolic ester derivatives with intravenous anaesthetic activity” (Bioorg Med Chem Lett, 2003).
pIC50: −log10 of the molar value.

How the values were obtained:
[1] = target: GABA-A receptor; anion channel; test: In vitro inhibition of [35S]TBPS binding to GABA-A receptor of rat whole brain membranes; assay type: cell membranes
[2] = test system: Mus musculus; test: Intravenous hypnotic dose that caused a loss of righting reflex for a minimum period of 30s in 50% of treated mice determined by probit analysis.; assay type: functional

pIC50 [1]	SMILES	HD50 [2] [µM/kg]
5.21	COc1cc(C)cc(OC)c1OC(=O)C(CCS(C)(=O)=O)N1C=CCCC1 (stereo not given)	39.3
–	COc1cccc(OC)c1OC(=O)C(CCS(C)(=O)=O)N1CCOCC1 (stereo not given)	99
5.38	COC(=O)CC(C(=O)Oc1c(OC)cccc1OC)N1CCCCCC1 (stereo not given)	22.9
4.83	COC(=O)CC(C(=O)Oc1c(OC)cc(C)cc1OC)N1CCCCC1 (stereo not given)	48
–	COC(=O)CC(C(=O)Oc1c(OC)cc(C)cc1OC)N1CCOCC1 (stereo not given)	46
4.93	COC(=O)CC(C(=O)Oc1c(OC)cccc1OC)N1CCCCC1 (stereo not given)	26.4
–	COc1cc(C)cc(OC)c1OC(=O)C(CCSC)N1CCOCC1 (stereo not given)	34.8
–	COCCN(CCOC)C(CCS(C)(=O)=O)C(=O)Oc1c(OC)cccc1OC (stereo not given)	>106
–	COCCN(CCOC)C(CCS(C)(=O)=O)C(=O)Oc1c(OC)cc(C)cc1OC (stereo not given)	77
–	COC(=O)CC(C(=O)Oc1c(OC)cc(C)cc1OC)N1CCCCCC1 (stereo not given)	26
–	COC(=O)CC(C(=O)Oc1c(OC)cccc1OC)N1CCOCC1 (stereo not given)	79
5.40	COc1cccc(OC)c1OC(=O)C(CCSC)N1CCCCC1 (stereo not given)	<25
–	COC(=O)CC(C(=O)Oc1c(OC)cccc1OC)N1CCCC1 (stereo not given)	77
–	COC(=O)CC(C(=O)Oc1c(OC)cc(C)cc1OC)N1CCCC1 (stereo not given)	52
–	COc1cccc(OC)c1OC(=O)C(CC(=O)N1CCCCC1)N1CCCCC1 (stereo not given)	39
–	COc1cc(C)cc(OC)c1OC(=O)C(CC[S+](C)[O-])N1CCCC1 (stereo not given)	73
–	COc1cccc(OC)c1OC(=O)C(CC(=O)N1CCCC1)N1CCCCCC1 (stereo not given)	34
–	COc1cc(C)cc(OC)c1OC(=O)C(CC(=O)N1CCOCC1)N1CCOCC1 (stereo not given)	>218
5.16	COCCN(CCOC)C(CCSC)C(=O)Oc1c(OC)cc(C)cc1OC (stereo not given)	22.6

pIC50 [1]	SMILES	HD50 [2] [µM/kg]
–	COc1cccc(OC)c1OC(=O)C(CCSC)N1CCOCC1 (stereo not given)	26.1
5.57	COc1cc(C)cc(OC)c1OC(=O)C(CCSC)N1CCCC1 (stereo not given)	31.4
–	COc1cc(C)cc(OC)c1OC(=O)C(CC(=O)N1CCCC1)N1CCCCCC1 (stereo not given)	67
–	COc1cc(C)cc(OC)c1OC(=O)C(CCS(C)(=O)=O)N1CCOCC1 (stereo not given)	108
–	COc1cc(C)cc(OC)c1OC(=O)C(CC(=O)N1CCCCC1)N1CCCCC1 (stereo not given)	37.5
–	CCN(CC)C(=O)CC(C(=O)Oc1c(OC)cc(C)cc1OC)N1CCOCC1 (stereo not given)	38
–	COc1cccc(OC)c1OC(=O)C(CCSC)N1CCCC1 (stereo not given)	40
–	COc1cc(C)cc(OC)c1OC(=O)C(CC(=O)N1CCCC1)N1CCCC1 (stereo not given)	81
–	COc1cc(C)cc(OC)c1OC(=O)C(CC[S+](C)[O-])N1CCOCC1 (stereo not given)	299
–	COc1cccc(OC)c1OC(=O)C(CCSC)N1CCCCCCC1 (stereo not given)	35
5.01	COc1cccc(OC)c1OC(=O)C(CCSC)N1CCCCCC1 (stereo not given)	18.2
–	COc1cccc(OC)c1OC(=O)C(CC(=O)N1CCCC1)N1CCCC1 (stereo not given)	102
–	CCN(CC)C(=O)CC(C(=O)Oc1c(OC)cccc1OC)N1CCOCC1 (stereo not given)	117
–	COc1cccc(OC)c1OC(=O)C(CC(=O)N1CCOCC1)N1CCOCC1 (stereo not given)	>225
–	COCCN(CCOC)C(CC(=O)OC)C(=O)Oc1c(OC)cc(C)cc1OC (stereo not given)	48
–	COCCN(CCOC)C(CC(=O)OC)C(=O)Oc1c(OC)cccc1OC (stereo not given)	48
–	CC[C@H](C(=O)Oc1c(OC)cc(C)cc1OC)N(CCOC)CCOC [ORG-24447]	21.7
–	CC(C)c1cccc(C(C)C)c1O [PROPOFOL]	68
